Measured values taken from patent US9346798B2, “Dihydrobenzoxazine and tetrahydroquinoxaline sodium channel inhibitors” (AMGEN INC., priority 2012, dated 2016).

Key:
Type in all cases: cell-based
Nav 1.7 [1] = biological target: T1, Nav 1.7 (Homo sapiens (Human), UniProt Q15858); experiment: Nav 1.7 in vitro assay, IonWorks Quattro (IWQ) population patch-clamp; details: HEK 293 cells stably transfected with Nav 1.7; 26th pulse to -20 mV
Nav 1.7 [2] = biological target: T1, Nav 1.7; experiment: Nav 1.7 in vitro PX assay, PatchXpress whole cell voltage clamp; details: HEK 293 cells stably transfected with human Nav1.7; partially inactivated state (20 to 50% inactivation)
Outline: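 Partially inactivated channels (20–50% inactivation at holding potential) were probed on automated patch clamp in stably transfected HEK293 cells, stepping to −10 mV for 20 msec every 10 s (0.1 Hz).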

Nav 1.5 = Nav 1.5 (Homo sapiens (Human), UniProt Q14524); experiment: Nav 1.5 in vitro assay, IonWorks Quattro (IWQ) population patch-clamp; details: HEK 293 cells stably transfected with Nav 1.5; 26th pulse to -20 mV
Sequence of Nav 1.5 (Q14524 whole entry): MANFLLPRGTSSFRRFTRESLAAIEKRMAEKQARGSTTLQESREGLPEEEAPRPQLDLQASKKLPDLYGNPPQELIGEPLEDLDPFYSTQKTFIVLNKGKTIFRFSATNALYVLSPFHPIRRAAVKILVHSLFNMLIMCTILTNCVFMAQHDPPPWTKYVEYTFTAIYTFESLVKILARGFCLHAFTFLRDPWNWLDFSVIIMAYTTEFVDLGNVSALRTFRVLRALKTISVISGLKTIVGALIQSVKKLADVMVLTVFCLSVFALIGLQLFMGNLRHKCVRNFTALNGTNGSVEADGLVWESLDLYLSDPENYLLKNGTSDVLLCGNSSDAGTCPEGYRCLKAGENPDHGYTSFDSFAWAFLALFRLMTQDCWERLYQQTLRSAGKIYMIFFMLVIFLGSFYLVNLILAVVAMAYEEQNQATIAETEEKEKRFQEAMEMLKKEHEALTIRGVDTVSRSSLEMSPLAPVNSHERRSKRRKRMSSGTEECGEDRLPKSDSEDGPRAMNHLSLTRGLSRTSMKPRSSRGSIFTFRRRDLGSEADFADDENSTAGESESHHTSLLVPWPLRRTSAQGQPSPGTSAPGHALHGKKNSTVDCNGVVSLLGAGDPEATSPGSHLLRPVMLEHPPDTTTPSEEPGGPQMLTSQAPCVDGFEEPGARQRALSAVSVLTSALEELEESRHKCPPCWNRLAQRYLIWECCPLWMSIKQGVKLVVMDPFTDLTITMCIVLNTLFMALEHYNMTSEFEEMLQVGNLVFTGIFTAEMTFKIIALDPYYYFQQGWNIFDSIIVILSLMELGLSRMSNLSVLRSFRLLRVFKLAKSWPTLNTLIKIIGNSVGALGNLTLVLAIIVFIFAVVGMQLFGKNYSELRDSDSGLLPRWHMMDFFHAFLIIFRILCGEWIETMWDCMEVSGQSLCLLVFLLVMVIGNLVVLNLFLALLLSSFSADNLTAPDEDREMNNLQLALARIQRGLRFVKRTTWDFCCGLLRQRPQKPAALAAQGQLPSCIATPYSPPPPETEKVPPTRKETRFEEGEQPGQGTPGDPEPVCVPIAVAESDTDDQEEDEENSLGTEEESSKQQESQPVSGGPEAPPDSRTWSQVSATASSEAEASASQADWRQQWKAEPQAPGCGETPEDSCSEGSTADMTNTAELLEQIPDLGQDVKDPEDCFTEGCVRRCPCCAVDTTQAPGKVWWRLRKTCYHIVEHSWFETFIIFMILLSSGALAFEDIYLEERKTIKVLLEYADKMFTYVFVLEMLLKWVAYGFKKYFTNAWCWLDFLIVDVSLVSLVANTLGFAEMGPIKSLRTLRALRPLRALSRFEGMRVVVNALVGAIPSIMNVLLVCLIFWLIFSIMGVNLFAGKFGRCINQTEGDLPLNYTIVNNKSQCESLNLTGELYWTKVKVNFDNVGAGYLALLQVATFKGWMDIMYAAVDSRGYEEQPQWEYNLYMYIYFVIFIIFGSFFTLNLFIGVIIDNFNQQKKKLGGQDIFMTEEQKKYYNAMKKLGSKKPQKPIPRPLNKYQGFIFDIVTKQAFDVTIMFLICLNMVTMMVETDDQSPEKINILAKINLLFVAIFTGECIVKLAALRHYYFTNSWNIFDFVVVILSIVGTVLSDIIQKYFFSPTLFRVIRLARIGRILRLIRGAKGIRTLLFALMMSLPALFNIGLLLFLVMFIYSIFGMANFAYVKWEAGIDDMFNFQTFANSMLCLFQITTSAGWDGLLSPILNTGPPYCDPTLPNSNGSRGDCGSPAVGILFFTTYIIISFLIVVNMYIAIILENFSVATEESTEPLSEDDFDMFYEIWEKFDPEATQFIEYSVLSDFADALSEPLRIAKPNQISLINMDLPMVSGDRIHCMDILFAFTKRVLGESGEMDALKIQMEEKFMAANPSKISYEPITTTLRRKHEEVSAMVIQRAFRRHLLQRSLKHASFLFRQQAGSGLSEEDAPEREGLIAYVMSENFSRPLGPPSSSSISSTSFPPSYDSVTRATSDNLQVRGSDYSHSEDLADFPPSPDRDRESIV

T1 sequence (Q15858 whole entry): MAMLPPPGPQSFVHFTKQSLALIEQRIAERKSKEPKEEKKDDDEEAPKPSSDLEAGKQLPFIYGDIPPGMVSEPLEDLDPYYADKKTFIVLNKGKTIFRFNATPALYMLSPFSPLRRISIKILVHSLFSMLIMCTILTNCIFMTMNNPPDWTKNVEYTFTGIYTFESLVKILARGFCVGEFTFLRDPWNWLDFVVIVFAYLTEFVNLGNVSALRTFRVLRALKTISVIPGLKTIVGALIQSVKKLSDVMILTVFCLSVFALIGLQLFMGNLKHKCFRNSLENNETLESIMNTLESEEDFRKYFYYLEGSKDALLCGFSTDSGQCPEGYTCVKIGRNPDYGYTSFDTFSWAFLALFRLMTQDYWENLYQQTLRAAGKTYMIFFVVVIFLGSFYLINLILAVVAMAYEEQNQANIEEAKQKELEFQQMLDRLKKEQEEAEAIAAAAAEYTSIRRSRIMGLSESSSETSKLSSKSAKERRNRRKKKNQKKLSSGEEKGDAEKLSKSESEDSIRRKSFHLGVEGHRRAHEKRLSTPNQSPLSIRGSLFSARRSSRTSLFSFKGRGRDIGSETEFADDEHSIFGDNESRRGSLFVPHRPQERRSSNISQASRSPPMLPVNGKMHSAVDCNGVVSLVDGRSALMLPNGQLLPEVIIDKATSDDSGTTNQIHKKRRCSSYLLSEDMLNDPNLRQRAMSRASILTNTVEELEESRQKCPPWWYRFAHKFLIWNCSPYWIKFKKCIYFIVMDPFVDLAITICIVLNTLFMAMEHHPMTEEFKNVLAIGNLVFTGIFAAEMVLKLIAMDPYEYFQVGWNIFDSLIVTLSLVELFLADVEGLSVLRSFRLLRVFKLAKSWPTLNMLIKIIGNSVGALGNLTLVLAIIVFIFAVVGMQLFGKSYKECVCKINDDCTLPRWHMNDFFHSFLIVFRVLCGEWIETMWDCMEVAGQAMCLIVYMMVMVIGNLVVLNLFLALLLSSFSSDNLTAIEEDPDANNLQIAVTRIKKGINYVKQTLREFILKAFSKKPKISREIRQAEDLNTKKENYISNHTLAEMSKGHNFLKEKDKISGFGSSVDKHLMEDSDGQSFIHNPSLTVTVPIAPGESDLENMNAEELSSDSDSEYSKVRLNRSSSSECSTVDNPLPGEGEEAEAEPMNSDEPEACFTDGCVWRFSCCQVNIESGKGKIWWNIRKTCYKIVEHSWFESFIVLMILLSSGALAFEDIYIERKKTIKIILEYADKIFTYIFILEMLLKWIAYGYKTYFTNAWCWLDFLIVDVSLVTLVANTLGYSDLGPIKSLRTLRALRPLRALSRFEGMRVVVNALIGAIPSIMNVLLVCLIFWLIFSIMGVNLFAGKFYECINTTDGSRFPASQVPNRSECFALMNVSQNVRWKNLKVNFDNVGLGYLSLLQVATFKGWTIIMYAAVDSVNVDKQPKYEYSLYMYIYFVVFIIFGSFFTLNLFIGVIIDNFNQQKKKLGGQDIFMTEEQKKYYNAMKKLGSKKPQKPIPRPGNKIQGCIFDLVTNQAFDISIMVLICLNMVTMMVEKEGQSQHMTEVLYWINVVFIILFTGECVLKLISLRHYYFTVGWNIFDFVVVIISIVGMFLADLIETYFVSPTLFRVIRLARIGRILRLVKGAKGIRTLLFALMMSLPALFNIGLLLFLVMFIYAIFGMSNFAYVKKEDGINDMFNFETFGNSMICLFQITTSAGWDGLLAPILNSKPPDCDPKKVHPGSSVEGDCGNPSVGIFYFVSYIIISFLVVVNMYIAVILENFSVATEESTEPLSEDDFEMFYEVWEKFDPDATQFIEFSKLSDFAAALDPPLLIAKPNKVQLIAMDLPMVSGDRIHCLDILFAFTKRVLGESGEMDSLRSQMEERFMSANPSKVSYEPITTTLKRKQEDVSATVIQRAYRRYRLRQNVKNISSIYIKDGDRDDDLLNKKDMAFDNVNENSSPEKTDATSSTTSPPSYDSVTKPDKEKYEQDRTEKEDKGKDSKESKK

SMILES | IC50 (Nav 1.7 [1]) [nM] | IC50 (Nav 1.7 [2]) [nM] | IC50 (Nav 1.5) [nM]
COCCOc1ccc(N2CCOc3cc(S(=O)(=O)Nc4ncns4)ccc32)cc1 [Example 39, 4-(4-(2-Methoxyethoxy)Phenyl)-N-(1,2,4-Thiadiazol-5-Yl)-3,4-Dihydro-2H-Benzo[B][1,4]Oxazine-7-Sulfonamide] | 333 | 9220 | > 10000
O=S(=O)(Nc1ccncn1)c1ccc2c(c1)OCCN2c1ccc(C(F)(F)F)cc1Cl [Example 32, 4-(2-Chloro-4-(Trifluoromethyl)Phenyl)-N-(Pyrimidin-4-Yl)-3,4-Dihydro-2H-Benzo[B][1,4]Oxazine-7-Sulfonamide] | 72.5 | 534 | 4770
CN1CCN(c2cc(C(F)(F)F)ccc2N2CCOc3cc(S(=O)(=O)Nc4nccs4)ccc32)CC1 [Example 50, 4-(2-(4-Methylpiperazin-1-Yl)-4-(Trifluoromethyl)Phenyl)-N-(Thiazol-2-Yl)-3,4-Dihydro-2H-Benzo[B][1,4]Oxazine-7-Sulfonamide 2,2,2-Trifluoroacetate] | 117 | 315 | 957
O=S(=O)(Nc1ncns1)c1ccc2c(c1)NCCN2c1ccc(C(F)(F)F)cc1Cl [Example 18, 1-(2-Chloro-4-(Trifluoromethyl)Phenyl)-N-(1,2,4-Thiadiazol-5-Yl)-1,2,3,4-Tetrahydroquinoxaline-6-Sulfonamide] | 1040 | 946 | > 10000
COc1cc(Cl)ccc1N1C[C@H](C)Oc2cc(S(=O)(=O)Nc3nccs3)ccc21 (single isomer, unassigned) [Example 104] | 110 | 657 | > 10000
O=S(=O)(Nc1ncccn1)c1ccc2c(c1)OCCN2c1ccc(C(F)(F)F)cc1Cl [Example 16, 4-(2-Chloro-4-(Trifluoromethyl)Phenyl)-N-(Pyrimidin-2-Yl)-3,4-Dihydro-2H-Benzo[B][1,4]Oxazine-7-Sulfonamide] | 1860 | 11900 | > 10000
O=S(=O)(Nc1ncns1)c1ccc2c(c1)OCCN2c1cccc2ccccc12 [Example 36, 4-(Naphthalen-1-Yl)-N-(1,2,4-Thiadiazol-5-Yl)-3,4-Dihydro-2H-Benzo[B][1,4]Oxazine-7-Sulfonamide] | 31.5 | 145 | > 10000
N#Cc1cc(Cl)ccc1N1CCOc2cc(S(=O)(=O)Nc3nccs3)ccc21 [Example 56, 4-(4-Chloro-2-Cyanophenyl)-N-(Thiazol-2-Yl)-3,4-Dihydro-2H-Benzo[B][1,4]Oxazine-7-Sulfonamide] | 51 | 265 | 4790
COCCNc1cc(C(F)(F)F)ccc1N1CCOc2cc(S(=O)(=O)Nc3ccncn3)ccc21 [Example 48, 4-(2-((2-Methoxyethyl)Amino)-4-(Trifluoromethyl)Phenyl)-N-(Pyrimidin-4-Yl)-3,4-Dihydro-2H-Benzo[B][1,4]Oxazine-7-Sulfonamide] | 28.5 | 719 | > 10000
Cc1cc(N2CCOc3cc(S(=O)(=O)Nc4nccs4)ccc32)ccc1C#N [Example 116, 4-(4-Cyano-3-methylphenyl)-N-(thiazol-2-yl)-3,4-dihydro-2H-benzo[b][1,4]oxazine-7-sulfonamide] | 841 | 4950 | 7360
N#Cc1ccccc1N1CCOc2cc(S(=O)(=O)Nc3ncns3)ccc21 [Example 57, 4-(2-Cyanophenyl)-N-(1,2,4-Thiadiazol-5-Yl)-3,4-Dihydro-2H-Benzo[B][1,4]Oxazine-7-Sulfonamide] | 154 | 1930 | 6700
CN1CC=C(c2cc(C(F)(F)F)ccc2N2CCOc3cc(S(=O)(=O)Nc4nccs4)ccc32)CC1 [Example 44, 4-(2-(1-Methyl-1,2,3,6-Tetrahydropyridin-4-Yl)-4-(Trifluoromethyl)Phenyl)-N-(Thiazol-2-Yl)-3,4-Dihydro-2H-Benzo[B][1,4]Oxazine-7-Sulfonamide] | 14 | 68.7 | 3590
O=S(=O)(Nc1nccs1)c1ccc2c(c1)OCCN2c1ccc(Cl)cc1 [Example 40, 4-(4-Chlorophenyl)-N-(Thiazol-2-Yl)-3,4-Dihydro-2H-Benzo[B][1,4]Oxazine-7-Sulfonamide] | 713 | 4320 | > 10000
O=S(=O)(Nc1ccncn1)c1ccc2c(c1)OCCN2c1ncc(C(F)(F)F)cc1Cl [Example 99, 4-(3-Chloro-5-(Trifluoromethyl)Pyridin-2-Yl)-N-(Pyrimidin-4-Yl)-3,4-Dihydro-2H-Benzo[B][1,4]Oxazine-7-Sulfonamide] | 327 | 4970 | > 10000
O=S(=O)(Nc1ncns1)c1ccc2c(c1)OCCN2c1ccc(C(F)(F)F)cc1-c1ccncc1 [Example 26, 4-(2-(Pyridin-4-Yl)-4-(Trifluoromethyl)Phenyl)-N-(1,2,4-Thiadiazol-5-Yl)-3,4-Dihydro-2H-Benzo[B][1,4]Oxazine-7-Sulfonamide] | 10.5 | 102 | 306
CC[C@H]1CN(c2ccc(C(F)(F)F)cc2C#N)c2ccc(S(=O)(=O)Nc3nccs3)cc2O1 (single isomer, unassigned) [Example 101] | 367 | 3630 | 8500
Cn1nccc1-c1cc(C(F)(F)F)ccc1N1CCOc2cc(S(=O)(=O)Nc3nccs3)ccc21 [Example 42, 4-(2-(1-Methyl-1H-Pyrazol-5-Yl)-4-(Trifluoromethyl)Phenyl)-N-(Thiazol-2-Yl)-3,4-Dihydro-2H-Benzo[B][1,4]Oxazine-7-Sulfonamide] | 121 | 1540 | > 10000
COc1cc(C#N)ccc1N1CCOc2cc(S(=O)(=O)Nc3nccs3)c(F)cc21 [Example 217, 4-(4-Cyano-2-Methoxyphenyl)-6-Fluoro-N-(Thiazol-2-Yl)-3,4-Dihydro-2H-Benzo[B][1,4]Oxazine-7-Sulfonamide] | 8 | 207 | 1310
O=S(=O)(Nc1nccs1)c1ccc2c(c1)OCCN2c1ccc(C(F)(F)F)c(Cl)c1 [Example 126, 4-(3-Chloro-4-(trifluoromethyl)phenyl)-N-(thiazol-2-yl)-3,4-dihydro-2H-benzo[b][1,4]oxazine-7-sulfonamide] | 1240 | 14200 | > 10000
O=S(=O)(Nc1ccno1)c1ccc2c(c1)OCCN2c1ccc(C(F)(F)F)cc1Cl [Example 55, 4-(2-Chloro-4-(Trifluoromethyl)Phenyl)-N-(Isoxazol-5-Yl)-3,4-Dihydro-2H-Benzo[B][1,4]Oxazine-7-Sulfonamide] | 2920 | 19900 | > 10000

Further lines, with some results ahead:

IC50 (Nav 1.7 [1]) [nM] | IC50 (Nav 1.7 [2]) [nM] | SMILES | IC50 (Nav 1.5) [nM]
177 | 3320 | O=S(=O)(Nc1nccs1)c1ccc2c(c1)OCCN2c1ccc(C(F)(F)F)cn1 [Example 183, N-(Thiazol-2-Yl)-4-(5-(Trifluoromethyl)Pyridin-2-Yl)-3,4-Dihydro-2H-Benzo[B][1,4]Oxazine-7-Sulfonamide] | > 10000
401 | 2620 | O=S(=O)(Nc1nccs1)c1ccc2c(c1)OCCN2c1ccc(Cl)cc1F [Example 170, 4-(4-Chloro-2-Fluorophenyl)-N-(Thiazol-2-Yl)-3,4-Dihydro-2H-Benzo[B][1,4]Oxazine-7-Sulfonamide 2,2,2-Trifluoroacetate] | > 10000
564 | 3030 | Cc1onc(-c2ccccc2)c1CN1CCOc2cc(S(=O)(=O)Nc3nccs3)ccc21 [Example 221, 4-((5-Methyl-3-Phenylisoxazol-4-Yl)Methyl)-N-(Thiazol-2-Yl)-3,4-Dihydro-2H-Benzo[B][1,4]Oxazine-7-Sulfonamide] | > 10000
36.5 | 740 | Cc1cc(C#N)ccc1N1CCOc2cc(S(=O)(=O)Nc3nccs3)ccc21 [Example 226, 4-(4-Cyano-2-Methylphenyl)-N-(Thiazol-2-Yl)-3,4-Dihydro-2H-Benzo[B][1,4]Oxazine-7-Sulfonamide] | > 10000
417 | 7730 | N#Cc1c(F)cccc1N1CCOc2cc(S(=O)(=O)Nc3nccs3)ccc21 [Example 187, 4-(2-Cyano-3-Fluorophenyl)-N-(Thiazol-2-Yl)-3,4-Dihydro-2H-Benzo[B][1,4]Oxazine-7-Sulfonamide] | > 10000
683 | 11100 | O=S(=O)(Nc1nccs1)c1ccc2c(c1)OCCN2c1cccc2cccnc12 [Example 166, 4-(Quinolin-8-Yl)-N-(Thiazol-2-Yl)-3,4-Dihydro-2H-Benzo[B][1,4]Oxazine-7-Sulfonamide 2,2,2-Trifluoroacetate] | > 10000
469 | 387 | N#Cc1cc(-c2ccc(F)cc2)ccc1N1CCOc2cc(S(=O)(=O)Nc3nccs3)ccc21 [Example 199, 4-(3-Cyano-4′-Fluoro-[1,1′-Biphenyl]-4-Yl)-N-(Thiazol-2-Yl)-3,4-Dihydro-2H-Benzo[B][1,4]Oxazine-7-Sulfonamide] | 1220
103 | 684 | O=S(=O)(Nc1nccs1)c1ccc2c(c1)OCCN2c1ccc(Cl)cc1OC(F)F [Example 193, 4-(4-Chloro-2-(Difluoromethoxy)Phenyl)-N-(Thiazol-2-Yl)-3,4-Dihydro-2H-Benzo[B][1,4]Oxazine-7-Sulfonamide 2,2,2-Trifluoroacetate] | 1560
309 | 5170 | COc1ccncc1N1CCOc2cc(S(=O)(=O)Nc3nccs3)ccc21 [Example 190, 4-(4-Methoxypyridin-3-Yl)-N-(Thiazol-2-Yl)-3,4-Dihydro-2H-Benzo[B][1,4]Oxazine-7-Sulfonamide] | > 10000
